Experimental data published in ChEMBL document CHEMBL1201862, “PubChem BioAssay data set” (2004).
Calls of active or inactive are those of the source.

What was measured:
[1] = molecular target: Luciferin 4-monooxygenase (Photinus pyralis, UniProt P08659); assay: Counter Screen for Luciferase-based Assay Positives. [Related pubchem assays: 620, 618, 411 ]
HT-1080 = assay: cytotoxicity in HT1080 fibrosarcoma cells, cell-based, fluorescence readout (AID 620); format: functional; details: Homo sapiens
[2] = molecular target: Melanin-concentrating hormone receptor 1 (Homo sapiens, UniProt Q99705); assay: Late-stage fluorescence-based counterscreen for antagonists of the G-protein coupled receptor 7 (GPR7): cell-based dose response assay to identify antagonists of the melanin-concentrating hormone receptor 1 (MCHR1). [Related pubchem assays (depositor defined):AID1861, AID1880, AID1952, AID2148, AID2251, AID2257, AID485339]; format: functional;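 also: stimulated with 30 nM MCH peptide agonist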
Sequence of Melanin-concentrating hormone receptor 1 (Q99705 whole entry): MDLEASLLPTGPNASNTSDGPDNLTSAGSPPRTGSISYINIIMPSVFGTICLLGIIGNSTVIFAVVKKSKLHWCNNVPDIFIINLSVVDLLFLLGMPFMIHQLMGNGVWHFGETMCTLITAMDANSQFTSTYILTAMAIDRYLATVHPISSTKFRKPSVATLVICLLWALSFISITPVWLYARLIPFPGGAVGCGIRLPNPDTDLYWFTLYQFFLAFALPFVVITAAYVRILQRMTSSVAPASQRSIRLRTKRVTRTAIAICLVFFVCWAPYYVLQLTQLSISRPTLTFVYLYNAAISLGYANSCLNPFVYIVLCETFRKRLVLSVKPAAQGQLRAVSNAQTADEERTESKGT

Nonstructural protein 1 = Nonstructural protein 1 (Influenza A virus, UniProt Q194T2); format: functional, Influenza A virus (A/California/07/2009(H1N1))
Sequence of Nonstructural protein 1 (Q194T2 whole entry): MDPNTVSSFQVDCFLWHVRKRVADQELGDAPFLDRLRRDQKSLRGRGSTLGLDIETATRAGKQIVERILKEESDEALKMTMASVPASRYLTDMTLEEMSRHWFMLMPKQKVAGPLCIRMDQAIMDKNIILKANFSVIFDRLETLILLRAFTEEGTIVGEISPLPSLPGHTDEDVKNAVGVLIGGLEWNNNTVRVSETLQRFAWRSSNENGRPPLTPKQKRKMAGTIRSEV

Bcl-2-like protein 10 = molecular target: T1, Bcl-2-like protein 10 (Homo sapiens, UniProt Q9HD36); assay: displacers of TR3 peptide from Bcl-B, primary screen, selectivity assay for Bfl-1 inhibitor project, biochemical, fluorescence polarization, FITC-TR3 peptide (AID 748);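 also: fluorescence polarization from a fluorescein-labelled TR3 peptide binding purified Bcl-B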
T1 sequence (Q9HD36 whole entry): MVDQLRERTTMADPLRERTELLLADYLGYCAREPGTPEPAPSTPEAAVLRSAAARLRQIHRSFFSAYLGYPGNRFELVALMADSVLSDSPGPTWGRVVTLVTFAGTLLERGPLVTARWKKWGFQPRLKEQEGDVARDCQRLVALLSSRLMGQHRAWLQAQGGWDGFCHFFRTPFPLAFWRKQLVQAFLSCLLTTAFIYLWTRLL

[3] = molecular target: Induced myeloid leukemia cell differentiation protein Mcl-1 (Homo sapiens, UniProt Q07820); format: functional
Sequence of Induced myeloid leukemia cell differentiation protein Mcl-1 (Q07820 whole entry): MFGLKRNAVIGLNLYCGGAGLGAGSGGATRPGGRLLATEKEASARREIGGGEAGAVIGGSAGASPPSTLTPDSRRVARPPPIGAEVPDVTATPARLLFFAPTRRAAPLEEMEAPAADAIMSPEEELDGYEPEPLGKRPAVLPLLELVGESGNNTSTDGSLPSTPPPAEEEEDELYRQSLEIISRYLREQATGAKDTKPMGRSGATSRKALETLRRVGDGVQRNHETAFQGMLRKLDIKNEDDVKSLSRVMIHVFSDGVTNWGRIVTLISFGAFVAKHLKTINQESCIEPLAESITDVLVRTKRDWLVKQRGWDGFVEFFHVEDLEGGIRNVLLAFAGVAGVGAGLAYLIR

[4] = cytotoxicity toward NIH3T3 fibroblasts, dose response, counter-screen, cell-based, ATP luminescence, mouse fibroblasts (AID 2010); format: functional;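 also: cells exposed to compound for about 90 hours before reading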
[5] = inhibitors of intracellular T. cruzi replication, confirmation, NIH3T3 host cells, beta-gal luminescence (AID 2044); format: functional, cell-based;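 also: intracellular parasites grown in NIH/3T3 mouse fibroblasts as host cells; luminescent beta-galactosidase reporter signal from transgenic T. cruzi replicating inside host cells; inhibitors lower the luminescence signal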
[6] = molecular target: T2, DNA repair protein RAD52 homolog (Homo sapiens, UniProt P43351); format: functional, biochemical
T2 sequence (P43351 whole entry): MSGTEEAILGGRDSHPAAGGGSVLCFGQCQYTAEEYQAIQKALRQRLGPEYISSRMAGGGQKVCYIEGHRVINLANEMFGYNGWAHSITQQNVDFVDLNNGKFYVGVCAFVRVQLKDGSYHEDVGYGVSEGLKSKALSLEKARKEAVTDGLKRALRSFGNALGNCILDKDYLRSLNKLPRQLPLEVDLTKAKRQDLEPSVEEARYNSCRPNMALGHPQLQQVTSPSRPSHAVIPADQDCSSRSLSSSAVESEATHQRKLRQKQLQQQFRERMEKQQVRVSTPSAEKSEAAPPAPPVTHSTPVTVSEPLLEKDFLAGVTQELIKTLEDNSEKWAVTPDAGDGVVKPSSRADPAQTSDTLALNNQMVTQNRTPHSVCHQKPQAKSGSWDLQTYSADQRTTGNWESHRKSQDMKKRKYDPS

[7] = molecular target: T3, Tyrosine-protein phosphatase non-receptor type 7 (Homo sapiens, UniProt P35236); assay: inhibitors of human HePTP phosphatase, […], biochemical, absorbance, leukemia target (AID 521); format: functional
T3 sequence (P35236 whole entry): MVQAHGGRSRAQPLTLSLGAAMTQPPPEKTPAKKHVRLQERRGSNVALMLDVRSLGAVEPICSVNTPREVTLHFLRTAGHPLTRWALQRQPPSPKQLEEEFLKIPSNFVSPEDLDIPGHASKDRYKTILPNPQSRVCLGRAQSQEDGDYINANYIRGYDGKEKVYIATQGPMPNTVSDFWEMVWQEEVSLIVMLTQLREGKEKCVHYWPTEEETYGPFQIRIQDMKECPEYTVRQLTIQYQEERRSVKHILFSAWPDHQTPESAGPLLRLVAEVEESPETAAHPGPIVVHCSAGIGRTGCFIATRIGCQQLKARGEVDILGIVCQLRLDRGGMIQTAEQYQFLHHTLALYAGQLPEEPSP

[8] = molecular target: T4, Heat shock factor protein 1 (Mus musculus, UniProt P38532); assay: HSF1 potentiators in luciferase reporter cells, confirmation, cell-based, NIH3T3, luminescence, dose retest (AID 435004); format: functional;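 also: stress induced by proteasome inhibitor MG132 added 30 min after compound; luciferase reporter driven by HSF1 response element in NIH3T3 cells; actives raise luminescence as potentiators of the MG132 stress response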
T4 sequence (P38532 whole entry): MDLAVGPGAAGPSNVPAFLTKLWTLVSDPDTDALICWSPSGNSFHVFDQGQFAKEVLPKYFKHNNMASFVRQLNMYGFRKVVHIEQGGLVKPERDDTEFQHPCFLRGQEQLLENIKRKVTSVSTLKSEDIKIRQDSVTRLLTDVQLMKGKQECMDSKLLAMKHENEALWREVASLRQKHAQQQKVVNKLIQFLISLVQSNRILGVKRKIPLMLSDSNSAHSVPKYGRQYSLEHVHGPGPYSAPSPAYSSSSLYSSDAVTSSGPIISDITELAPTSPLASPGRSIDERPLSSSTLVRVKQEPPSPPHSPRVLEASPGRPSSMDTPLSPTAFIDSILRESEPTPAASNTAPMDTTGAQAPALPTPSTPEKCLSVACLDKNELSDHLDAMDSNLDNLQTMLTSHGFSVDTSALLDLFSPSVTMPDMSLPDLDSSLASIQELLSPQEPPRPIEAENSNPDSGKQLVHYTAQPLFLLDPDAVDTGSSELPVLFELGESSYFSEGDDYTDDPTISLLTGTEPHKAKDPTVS

Sequence of Luciferin 4-monooxygenase (P08659 whole entry): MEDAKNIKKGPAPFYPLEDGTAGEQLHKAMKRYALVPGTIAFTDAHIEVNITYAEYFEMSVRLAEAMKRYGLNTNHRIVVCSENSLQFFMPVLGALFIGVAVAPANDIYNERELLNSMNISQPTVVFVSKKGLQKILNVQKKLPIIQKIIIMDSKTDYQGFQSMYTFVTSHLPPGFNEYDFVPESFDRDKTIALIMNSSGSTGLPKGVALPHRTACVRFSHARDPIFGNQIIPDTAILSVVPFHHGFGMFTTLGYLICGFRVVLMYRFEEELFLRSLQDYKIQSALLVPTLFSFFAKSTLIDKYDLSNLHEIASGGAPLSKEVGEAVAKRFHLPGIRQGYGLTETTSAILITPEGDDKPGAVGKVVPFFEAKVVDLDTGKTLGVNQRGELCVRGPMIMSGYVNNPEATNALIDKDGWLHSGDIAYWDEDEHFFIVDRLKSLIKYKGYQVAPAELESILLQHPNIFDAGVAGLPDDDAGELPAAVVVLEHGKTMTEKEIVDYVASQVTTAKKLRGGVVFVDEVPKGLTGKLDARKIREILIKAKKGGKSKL

CC1CCc2nc(NC(=O)C3CCCO3)sc2C1 (stereo unspecified)
EC50 [1]: < 0.2 µM (active) | EC50 (HT-1080): > 50 µM (not active)

Cc1ccc(-n2ncc(Cl)c(Oc3ccc(CO)cc3)c2=O)cc1
IC50 [2]: > 20 µM (inactive)

CCC(C)c1ccc(-n2ncc(Cl)c(Oc3ccc(OC)cc3)c2=O)cc1 (stereo unspecified)
IC50 [2]: 2.2 µM (active)

CN(C)c1ccc(NC(=O)CN2C(=O)CN=C(c3ccccc3)c3cc(Cl)ccc32)cc1
IC50 (Nonstructural protein 1): 31 µM (active) | IC50 (Bcl-2-like protein 10): > 100 µM (inactive) | IC50 [3]: 0.856 µM (not active)

Cc1ccc2nc(N(CCCN(C)C)C(=O)CN3C(=O)c4ccccc4C3=O)sc2c1
EC50 (cells): 0.055 µM (active) | EC50 [4]: > 60 µM (not active) | EC50 [5]: < 0.1 µM (active) | AC50 [6]: 21.7 µM (active)

O=C(NCc1cccc(F)c1)c1noc2c1CCCC2
IC50 [7]: > 100 µM (not active) | EC50 [8]: > 260 µM (inactive)

Cc1ccc(-c2csc(N=C(N)N)n2)c(C)c1
EC50 (cells): 0.167 µM (active) | EC50 [4]: > 60 µM (not active) | EC50 [5]: < 0.1 µM (active)
